Experimental findings from patent US10383837B2, “Compositions and methods for modulating metabolic pathways” (NuSirt Sciences, Inc., priority 2011, dated 2019) are described below.

The target of experiment [1] is T1, SIRT1 (Mus musculus, UniProt Q923E4).
T1 sequence (Q923E4 1-737): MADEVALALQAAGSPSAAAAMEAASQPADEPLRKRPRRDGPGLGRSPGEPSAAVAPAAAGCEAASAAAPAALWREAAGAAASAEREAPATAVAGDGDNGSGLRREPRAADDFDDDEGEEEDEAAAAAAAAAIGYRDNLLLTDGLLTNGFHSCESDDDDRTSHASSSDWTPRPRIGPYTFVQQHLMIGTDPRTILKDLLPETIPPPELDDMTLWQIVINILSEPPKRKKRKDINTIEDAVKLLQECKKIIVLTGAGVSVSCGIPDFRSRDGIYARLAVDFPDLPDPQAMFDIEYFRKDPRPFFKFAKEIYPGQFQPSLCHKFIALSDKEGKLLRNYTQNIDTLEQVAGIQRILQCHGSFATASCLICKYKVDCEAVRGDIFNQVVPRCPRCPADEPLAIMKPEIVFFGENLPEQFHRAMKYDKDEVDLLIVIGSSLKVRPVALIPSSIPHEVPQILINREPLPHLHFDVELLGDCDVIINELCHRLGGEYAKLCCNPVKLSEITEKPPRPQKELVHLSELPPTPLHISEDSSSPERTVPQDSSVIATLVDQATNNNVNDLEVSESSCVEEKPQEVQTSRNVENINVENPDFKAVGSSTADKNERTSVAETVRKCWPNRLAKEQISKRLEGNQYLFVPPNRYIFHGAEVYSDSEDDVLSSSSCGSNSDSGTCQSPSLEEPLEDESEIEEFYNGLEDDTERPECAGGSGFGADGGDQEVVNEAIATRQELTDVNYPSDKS
As to the kind of experiment: Adipose tissue Sirt1 activity in diet-induced obese mice. Format: in vivo, c57/BL6 mice. Further details: from tissue; host or cells: adipose tissue of diet-induced obese c57/BL6 mice. The conditions noted are these: 6 weeks.

The target of experiment [2] is T1, SIRT1. As to the kind of experiment: Sirt1 activity of treated cells (SIRT1 Fluorimetric Drug Discovery Kit), Example 5. Format: cell-based. Also on record: endogenous in cells; host or cells: 3T3-L1 adipocytes and C2C12 myotubes. Particulars: leucine 0.5 mM, HMB 5 μM, resveratrol 200 nM; summary in Example 5, system not stated. How it is done:
All compounds were tested for potential to independently or synergistically modulate sirtuin signaling either by direct stimulation or indirect via upstream signaling via AMPK. A key outcome of Sirt1 signaling is stimulation of PGC1-α and subsequent stimulation of mitochondrial biogenesis and fatty acid oxidation. Accordingly, fatty acid oxidation, measured as palmitate-induced oxygen consumption as described below, was utilized as a sensitive first level of screening for aerobic mitochondrial metabolism. A dose-response curve for fatty acid oxidation was established for each compound studied, and a “sub-therapeutic dose” was defined as the highest dose that exerted no effect in this system. […] Following assessment of fatty acid oxidation, Sirt1 activity, AMPK activity, mitochondrial biogenesis and glucose utilization (measured as glucose-induced extracellular acidification in the absence of fatty acids in the media) were assessed for lead combinations and appropriate controls. SIRT1 activity was measured by using the SIRT1 Fluorimetric Drug Discovery Kit (BML-AK555, ENZO Life Sciences International, Inc. PA, USA). […]

Another experiment relates to UCP1. As to the kind of experiment: UCP1 mRNA expression in subcutaneous adipose tissue of diet-induced obese mice. Format: in vivo, c57/BL6 mice. The conditions noted are these: six weeks, resveratrol 12.5 mg/kg diet, leucine 2.42%. As for the experimental part:
Expression of 18S, Sirt1, Sirt3, PGC1-α, cytochrome c oxidase subunit VIIc1 (COX 7), mitochondrial NADH dehydrogenase, nuclear respiratory factor 1 (NRF1), uncoupling protein (UCP2 (adipocyte)/UCP3 (myocyte), p53, AMPK, Akt/PKB, and GLUT4 is measured via quantitative real-time PCR using an ABI 7300 Real-Time PCR system (Applied Biosystems, Branchburg, N.J.) with a TaqMan® core reagent kit. All primers and probe sets can be obtained from Applied Biosystems TaqMan® Assays-on-Demand and utilized accordingly to manufacturer's instructions. Pooled RNA from each cell type are serial-diluted in the range of 0.0156-50 ng and were used to establish a standard curve; total RNA for each unknown sample is also diluted in this range. […] Expression of each gene of interest is then normalized using the corresponding 18S quantitation.
Six week old male c57/BL6 mice were fed a high-fat diet with fat increased to 45% of energy (Research Diets D12451) for 6 weeks to induce obesity. […] RNA was extracted from the subcutaneous adipose tissue, and gene expression was evaluated according to methods described in Example 4. […] Plasma levels of irisin were also evaluated, the results of which are described in Example 8 and illustrated in FIG. 70. […] Protein expression may also be determined by Western blot or ELISA, as in Example 8. […]

Another experiment has as its system myotubes (C2C12). Put plainly: Fatty acid oxidation, palmitate-induced O2 consumption (Seahorse XF24), myotubes. Format: cell-based. Particulars: 24 hours treatment, leucine 0.5 mM, HMB 5 μM, resveratrol 200 nM, partner at its no-effect concentration, % change from control.
In another experiment the test system is Adipocytes (3T3-L1). Put plainly: Fatty acid oxidation by 3H-palmitate in 3T3-L1 adipocytes. Format: cell-based. Particulars: 4 hours, low (5 mM) glucose, resveratrol 200 nM, HMB 5 uM, leucine 0.5 mM. As for the experimental part:
High glucose medium reduced fatty acid oxidation by 46% (p<0.05).
Fatty acid oxidation was measured using ^3H-labeled palmitate oxidation, with the ^3H label trapped as water as a result of the fat oxidation. The ^3H was then measured via scintillation counter.

Take `Oc1ccc(/C=C/c2cc(O)cc(O)c2)cc1` [resveratrol, 3,5,4′-Trihydroxy-trans-stilbene]: the “adipose tissue Sirt1 activity” value on SIRT1 [1] (high dose resveratrol) is listed as “non-significant trend towards an increase”; on SIRT1 [1] (low dose of resveratrol, HMB, leucine diets) it was “Neither resveratrol nor HMB exerted significant independent effects”. The “stimulation of Sirt1 activity” value on SIRT1 [2] is “no effect”. Moreover, in the experiment with UCP1, the “increase in UCP1 expression in white subcutaneous adipose tissue” value is listed as “no independent effect”. In addition, the “increase in myotube fatty acid oxidation” value with myotubes (C2C12) is “neither component exerted an independent effect”. Also, the “increase in fatty acid oxidation, low glucose” value in the experiment on Adipocytes (3T3-L1) is recorded as “no independent effect”.
